# Measurements taken from patent publication US20240091299A1, “TOPICAL COMPOSITIONS FOR ENHANCING A MAN'S SEXUAL RESPONSIVENESS AND PERFORMANCE” (The Hidden Vault LLC, priority 2022, published 2024).
# System: penis of a person
# Experiment: topical application of the compositions (massage oil) to a person's penis, twice daily
# Assay type: in vivo, human
# Conditions: ingredient as included in the compositions, applied topically to a person's penis as a massage oil
smiles,measurement,value
"C=C(C)[C@@H]1CCC(C)=C[C@H]1c1c(O)cc(CCCCC)cc1O [CBD, Cannabidiol]","effect on sexual arousal, performance, libido and penis size",enhances sexual arousal and performance and stamina
